Target: T1, human recombinant mGluR5 receptor (Homo sapiens, UniProt P41594)
T1 construct: expressed in transfected cells; expression induced with doxycycline
Test: mGluR5 in vitro functional assay (aequorin cell line, inhibition of glutamate EC80 response)
Type: cell-based
Conditions: not given
Method: B. mGluR5 In Vitro Functional Assay
The functional assay utilized an aequorin cell line expressing human recombinant mGluR5 receptor, an inducible cell line that expresses the human receptor under the control of a promoter induced by doxycycline.
mGluR5 cells in mid-log phase, grown 18 hours prior to the test in antibiotic-free media supplemented with doxycycline (600 ng/mL), were detached by gentle flushing with PBS-EDTA ([…]). The cells were recovered by centrifugation and resuspended in assay buffer (HBSS, […], 3 ug/mL glutamate-pyruvate transaminase, […] MEM sodium pyruvate, 0.1% BSA protease-free). Cells were incubated at room temperature for at least 4 hours with Coelenterazine h (Molecular Probes). The cell suspension (60 uL) containing the test compound was mixed with a solution of reference agonist (30 uL) at its EC80, following an incubation of 3 min. after the first injection. The resulting emission of light was recorded using a Hamamatsu Functional Drug Screening System 6000 (FDSS 6000). To standardize the emission of recorded light (determination of the “100% signal’) across plates and across different experiments, some of the wells contained 100 uM digitonin or a saturating concentration (20 mM) of ATP. Plates also contained the reference agonist (glutamate) at a concentration equivalent to the EC80 obtained during assay validation. Percentages of inhibition were calculated on the basis of the activation induced by the reference agonist at a concentration equal to the EC80. Dose-response data were analyzed with XLFit (IDBS) software using nonlinear regression applied to a sigmoidal dose-response model.

T1 sequence (P41594 21-1212): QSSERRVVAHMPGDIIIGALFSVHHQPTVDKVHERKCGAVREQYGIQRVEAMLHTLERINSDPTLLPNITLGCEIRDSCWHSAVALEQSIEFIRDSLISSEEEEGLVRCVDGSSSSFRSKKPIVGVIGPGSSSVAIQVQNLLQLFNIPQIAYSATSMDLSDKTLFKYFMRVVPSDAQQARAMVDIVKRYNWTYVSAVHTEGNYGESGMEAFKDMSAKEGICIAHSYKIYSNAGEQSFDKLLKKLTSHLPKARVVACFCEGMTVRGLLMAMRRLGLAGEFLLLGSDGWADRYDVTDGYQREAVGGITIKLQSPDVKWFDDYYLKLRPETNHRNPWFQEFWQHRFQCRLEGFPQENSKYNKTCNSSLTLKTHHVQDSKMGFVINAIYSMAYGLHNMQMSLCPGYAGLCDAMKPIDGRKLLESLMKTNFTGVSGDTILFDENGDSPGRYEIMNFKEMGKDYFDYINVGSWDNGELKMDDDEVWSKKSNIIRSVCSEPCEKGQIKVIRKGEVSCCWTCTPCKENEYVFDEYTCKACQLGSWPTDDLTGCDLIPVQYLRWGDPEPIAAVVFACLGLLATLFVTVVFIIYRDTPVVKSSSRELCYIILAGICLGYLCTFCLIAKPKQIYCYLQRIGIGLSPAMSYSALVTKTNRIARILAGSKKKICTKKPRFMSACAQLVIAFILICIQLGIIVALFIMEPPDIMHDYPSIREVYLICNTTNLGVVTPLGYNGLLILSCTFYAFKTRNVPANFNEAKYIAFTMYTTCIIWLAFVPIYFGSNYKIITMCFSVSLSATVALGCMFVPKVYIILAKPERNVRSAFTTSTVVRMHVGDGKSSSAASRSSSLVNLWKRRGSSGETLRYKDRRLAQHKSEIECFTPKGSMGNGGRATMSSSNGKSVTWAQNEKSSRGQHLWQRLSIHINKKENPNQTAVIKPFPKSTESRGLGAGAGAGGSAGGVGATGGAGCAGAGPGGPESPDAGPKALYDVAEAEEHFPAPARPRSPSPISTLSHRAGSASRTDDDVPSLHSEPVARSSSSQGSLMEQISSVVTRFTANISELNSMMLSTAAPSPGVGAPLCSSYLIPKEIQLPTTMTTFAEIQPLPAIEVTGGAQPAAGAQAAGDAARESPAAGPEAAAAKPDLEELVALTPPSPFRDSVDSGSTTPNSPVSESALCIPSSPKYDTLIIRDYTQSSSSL

For `N#Cc1ccc(N2CCc3oc(-c4ccccn4)nc3C2)cc1F` [Compound 36, 2-Fluoro-4-(2-(pyridin-2-yl)-6,7-dihydrooxazolo[4,5-c]pyridin-5(4H)-yl)benzonitrile], the IC50 was > 10 µM.

Same assay, conditions: Table 1; aequorin cell line expressing human mGluR5, reference agonist glutamate at EC80; obtained in duplicate; read-out: IC50

`N#Cc1cc(F)cc(CN2CCc3oc(-c4ccccn4)nc3C2)c1` [Compound 35, 3-Fluoro-5-((2-(pyridin-2-yl)-6,7-dihydrooxazolo-[4,5-c]pyridin-5(4H)-yl)methyl)benzonitrile] and `COc1cc(F)cc(N2CCc3oc(-c4ccccn4)nc3C2)c1` [Compound 56, 5-(3-Fluoro-5-methoxyphenyl)-2-(pyridin-2-yl)-4,5,6,7-tetrahydrooxazolo[4,5-c]pyridine] cannot be ordered by IC50: < 10 µM for the first, < 1 µM for the second.

`N#Cc1cccnc1N1CCc2oc(-c3ccccc3)nc2C1` [Compound 37, 2-(2-Phenyl-6,7-dihydrooxazolo[4,5-c]pyridin-5(4H)-yl)nicotinonitrile] and `N#Cc1cccnc1N1CCc2oc(-c3cccc(Cl)c3)nc2C1` [Compound 39, 2-(2-(3-Chlorophenyl)-6,7-dihydrooxazolo[4,5-c]pyridin-5(4H)-yl)nicotinonitrile] cannot be ordered by IC50: < 10 µM for the first, < 1 µM for the second.

`c1ccc(-c2nc3c(o2)CCN(c2ccccn2)C3)cc1` [Compound 38, 2-Phenyl-5-(pyridin-2-yl)-4,5,6,7-tetrahydrooxazolo-[4,5-c]pyridine] and `Clc1cccc(-c2nc3c(o2)CCN(c2ccccn2)C3)c1` [Compound 40, 2-(3-Chlorophenyl)-5-(pyridin-2-yl)-4,5,6,7-tetrahydrooxazolo[4,5-c]pyridine] cannot be ordered by IC50: < 10 µM for the first, < 1 µM for the second.

`Clc1cccc(-c2nc3c(o2)CCN(c2cnccn2)C3)c1` [Compound 41, 2-(3-Chlorophenyl)-5-(pyrazin-2-yl)-4,5,6,7-tetrahydrooxazolo[4,5-c]pyridine] and `c1ccc(-c2nc3c(o2)CCN(c2cnccn2)C3)cc1` [Compound 49, 2-Phenyl-5-(pyrazin-2-yl)-4,5,6,7-tetrahydrooxazolo[4,5-c]pyridine] cannot be ordered by IC50: < 1 µM for the first, < 10 µM for the second.

First: COc1ccc(-c2nc3c(o2)CCN(c2cnccn2)C3)cc1 [Compound 42, 2-(4-Methoxyphenyl)-5-(pyrazin-2-yl)-4,5,6,7-tetrahydrooxazolo[4,5-c]pyridine]
Second: Fc1ccc(-c2nc3c(o2)CCN(c2cnccn2)C3)cc1 [Compound 47, 2-(4-Fluorophenyl)-5-(pyrazin-2-yl)-4,5,6,7-tetrahydrooxazolo[4,5-c]pyridine]
The IC50 of the first is higher: > 10 µM for the first, < 10 µM for the second. The second is the more potent here.

`COc1ccc(-c2nc3c(o2)CCN(c2ncccc2C#N)C3)cc1` [Compound 43, 2-(2-(4-Methoxyphenyl)-6,7-dihydrooxazolo[4,5-c]pyridin-5(4H)-yl)nicotinonitrile] and `N#Cc1cccnc1N1CCc2oc(-c3ccc(F)cc3)nc2C1` [Compound 46, 2-(2-(4-Fluorophenyl)-6,7-dihydrooxazolo[4,5-c]pyridin-5(4H)-yl)nicotinonitrile] cannot be ordered by IC50: > 10 µM for the first, > 10 µM for the second.

First: N#Cc1cccnc1N1CCc2oc(-c3ccc(C(F)(F)F)cc3)nc2C1 [Compound 44, 2-(2-(4-(Trifluoromethyl)phenyl)-6,7-dihydrooxazolo[4,5-c]pyridin-5(4H)-yl)nicotinonitrile]
Second: Cc1cccc(-c2nc3c(o2)CCN(c2ncccc2C#N)C3)c1 [Compound 61, 2-(2-m-Tolyl-6,7-dihydrooxazolo[4,5-c]pyridin-5(4H)-yl)nicotinonitrile]
The IC50 of the first is higher: > 10 µM for the first, < 1 µM for the second.

Compared with `FC(F)(F)c1ccc(-c2nc3c(o2)CCN(c2cnccn2)C3)cc1` [Compound 45, 5-(Pyrazin-2-yl)-2-(4-(trifluoromethyl)phenyl)-4,5,6,7-tetrahydrooxazolo[4,5-c]pyridine], `Fc1ccc(-c2nc3c(o2)CCN(c2ccccn2)C3)cc1` [Compound 48, 2-(4-Fluorophenyl)-5-(pyridin-2-yl)-4,5,6,7-tetrahydrooxazolo[4,5-c]pyridine] is lower in IC50: > 10 µM for the first, < 10 µM for the second.

`Clc1cccc(-c2nc3c(o2)CCN(Cc2ccccn2)C3)c1` [Compound 50, 2-(3-Chlorophenyl)-5-(pyridin-2-ylmethyl)-4,5,6,7-tetrahydrooxazolo[4,5-c]pyridine] and `Clc1cccc(-c2nc3c(o2)CCN(c2cccnc2)C3)c1` [Compound 51, 2-(3-Chlorophenyl)-5-(pyridin-3-yl)-4,5,6,7-tetrahydrooxazolo[4,5-c]pyridine] cannot be ordered by IC50: < 10 µM for the first, < 1 µM for the second.

`N#Cc1nccnc1N1CCc2oc(-c3ccccc3)nc2C1` [Compound 52, 3-(2-Phenyl-6,7-dihydrooxazolo[4,5-c]pyridin-5(4H)-yl)pyrazine-2-carbonitrile] and `N#Cc1nccnc1N1CCc2oc(-c3cccc(Cl)c3)nc2C1` [Compound 53, 3-(2-(3-Chlorophenyl)-6,7-dihydrooxazolo[4,5-c]pyridin-5(4H)-yl)pyrazine-2-carbonitrile] cannot be ordered by IC50: < 10 µM for the first, < 1 µM for the second.

`O=C(c1ccc(F)cc1)N1CCc2oc(-c3ccc(F)cc3)nc2C1` [Compound 54, (4-Fluorophenyl)(2-(4-fluorophenyl)-6,7-dihydrooxazolo[4,5-c]pyridin-5(4H)-yl)methanone] and `Clc1ccc(-c2nc3c(o2)CN(c2ccccn2)CC3)cc1` [Compound 70, 2-(4-Chlorophenyl)-5-(pyridin-2-yl)-4,5,6,7-tetrahydrooxazolo[5,4-c]pyridine] cannot be ordered by IC50: < 10 µM for the first, < 1 µM for the second.

`c1ccc(-c2nc3c(o2)CCN(c2nccs2)C3)nc1` [Compound 55, 2-(Pyridin-2-yl)-5-(thiazol-2-yl)-4,5,6,7-tetrahydrooxazolo[4,5-c]pyridine] and `N#Cc1cc(N2CCc3oc(-c4ccccn4)nc3C2)ccc1F` [Compound 57, 2-Fluoro-5-(2-(pyridin-2-yl)-6,7-dihydrooxazolo[4,5-c]pyridin-5(4H)-yl)benzonitrile] cannot be ordered by IC50: < 1 µM for the first, < 10 µM for the second.

`Cc1cccc(-c2nc3c(o2)CN(c2ccccn2)CC3)c1` [Compound 58, 5-(Pyridin-2-yl)-2-m-tolyl-4,5,6,7-tetrahydrooxazolo[5,4-c]pyridine] and `Cc1cccc(-c2nc3c(o2)CCN(c2ccccn2)C3)c1` [Compound 60, 5-(Pyridin-2-yl)-2-m-tolyl-4,5,6,7-tetrahydrooxazolo-[4,5-c]pyridine] cannot be ordered by IC50: < 1 µM for the first, < 1 µM for the second.

`Cc1cccc(-c2nc3c(o2)CN(c2ncccc2C#N)CC3)c1` [Compound 59, 2-(2-m-Tolyl-6,7-dihydrooxazolo[5,4-c]pyridin-5(4H)-yl)nicotinonitrile] and `COc1cccc(-c2nc3c(o2)CN(c2ncccc2C#N)CC3)c1` [Compound 72, 2-(2-(3-Methoxyphenyl)-6,7-dihydrooxazolo[5,4-c]pyridin-5(4H)-yl)nicotinonitrile] cannot be ordered by IC50: < 1 µM for the first, < 1 µM for the second.

`N#Cc1cccc(-c2nc3c(o2)CCN(c2ccccn2)C3)c1` [Compound 62, 3-(5-(Pyridin-2-yl)-4,5,6,7-tetrahydrooxazolo[4,5-c]pyridin-2-yl)benzonitrile] and `N#Cc1cccc(-c2nc3c(o2)CN(c2ccccn2)CC3)c1` [Compound 65, 3-(5-(Pyridin-2-yl)-4,5,6,7-tetrahydrooxazolo[5,4-c]pyridin-2-yl)benzonitrile] cannot be ordered by IC50: > 10 µM for the first, > 10 µM for the second.

`N#Cc1cccc(-c2nc3c(o2)CCN(c2ncccc2C#N)C3)c1` [Compound 63, 2-(2-(3-Cyanophenyl)-6,7-dihydrooxazolo[4,5-c]pyridin-5(4H)-yl)nicotinonitrile] and `N#Cc1cccc(-c2nc3c(o2)CN(c2ncccc2C#N)CC3)c1` [Compound 66, 2-(2-(3-Cyanophenyl)-6,7-dihydrooxazolo[5,4-c]pyridin-5(4H)-yl)nicotinonitrile] cannot be ordered by IC50: < 10 µM for the first, < 10 µM for the second.

`N#Cc1cccc(-c2nc3c(o2)CCN(c2cccc(C#N)c2)C3)c1` [Compound 64, 3,3′-(6,7-Dihydrooxazolo[4,5-c]pyridine-2,5(4H)-diyl)dibenzonitrile] and `N#Cc1cccc(-c2nc3c(o2)CN(c2cccc(C#N)c2)CC3)c1` [Compound 67, 3,3′-(6,7-Dihydrooxazolo[5,4-c]pyridine-2,5(4H)-diyl)dibenzonitrile] cannot be ordered by IC50: < 1 µM for the first, < 1 µM for the second.

`Clc1ccccc1-c1nc2c(o1)CN(c1ccccn1)CC2` [Compound 68, 2-(2-Chlorophenyl)-5-(pyridin-2-yl)-4,5,6,7-tetrahydrooxazolo[5,4-c]pyridine] and `N#Cc1cccnc1N1CCc2nc(-c3ccccc3Cl)oc2C1` [Compound 69, 2-(2-(2-Chlorophenyl)-6,7-dihydrooxazolo[5,4-c]pyridin-5(4H)-yl)nicotinonitrile] cannot be ordered by IC50: < 10 µM for the first, < 10 µM for the second.

First: COc1cccc(-c2nc3c(o2)CN(c2ccccn2)CC3)c1 [Compound 71, 2-(3-Methoxyphenyl)-5-(pyridin-2-yl)-4,5,6,7-tetrahydrooxazolo[5,4-c]pyridine]
Second: COc1cccc(-c2nc3c(o2)CCN(c2ncccc2C#N)C3)c1 [Compound 73, 2-(2-(3-Methoxyphenyl)-6,7-dihydrooxazolo[4,5-c]pyridin-5(4H)-yl)nicotinonitrile]
The IC50 of the first is lower: < 10 µM for the first, > 10 µM for the second. The first is the more potent here.

With `Cc1ccc(-c2nc3c(o2)CN(c2cccc(C#N)c2)CC3)nc1` [Compound 74, 3-(2-(5-Methylpyridin-2-yl)-6,7-dihydrooxazolo[5,4-c]pyridin-5(4H)-yl)benzonitrile] the IC50 was < 10 µM.
